Active and inactive are the calls of the source. No cut-off for these calls is given here.
Columns and labels:
[1] = system: HOXA9 DNA binding site; test: Inhibition of HOXA9 (unknown origin) expressed in reticulocyte lysate system binding to 32P-radiolabeled DNA Hoxa9-binding site (strand a-CTGCGATGATTTACGACCGC /strand b-GCGGTCGTAAATCATCGCAG) (unknown origin) assessed as HOXA9/DNA inhibition at 2.5 to 20 uM incubated for 20 mins by electrophoretic mobility shift assay relative to control; assay type: subcellular; details: dose 2.5-20 µM
[2] = Induction of cell death in mouse MigA9 cells harboring mouse Hoxa9 gene assessed as propidium iodide-positive cells at 20 uM incubated for 24 hrs by propidium iodide staining based flow cytometry (reference value: 9.06 +/- 0.53%); assay type: functional; details: dose 20 µM; time 24 hrs
[3] = Induction of cell death in mouse MigA9 cells harboring mouse Hoxa9 gene assessed as propidium iodide-positive cells at 15 uM incubated for 24 hrs by propidium iodide staining based flow cytometry (reference value: 9.06 +/- 0.53%); assay type: functional; details: dose 15 µM; time 24 hrs
[4] = Cytotoxicity against mouse MigA9 cells harboring mouse Hoxa9 gene incubated for 72 hrs by MTS assay; assay type: functional, cell-based; details: MigA9, 72 h
[5] = Drug localization in nucleus of human HT-29 cells at 5 uM incubated for 16 hrs by DiOC6/propidium iodide staining based by fluorescence microscopy; assay type: ADME, subcellular; details: ht-29, 16 h
[6] = Induction of spectral signal at wavelength at 1 to 10 uM by circular dichroism method; assay type: physicochemical; details: dose 1-10 µM
[7] = Stability in mouse MigA9 cells assessed as visibility of intrinsic fluorescence measured after 10 days by fluorescence microscopy; assay type: ADME, cell-based; details: miga9, 240 h, time 10 day
[8] = system: K562; test: Anticlonogenic activity in human K562 cells assessed as K562 number at 2.5 uM incubated for 10 days by Methocult-colony forming cell assay relative to control; assay type: functional; details: time 10 day
[9] = system: HOXA9 DNA binding site [UNDEFINED MUTATION]; test: Binding affinity to DNA Hoxa9-binding site-5'-ATTTA/5'ATGA double mutant (strand a-CTGCGTAGCGTCACGACCGC/strand b-GCGGTCGTGACGCTACGCAG) (unknown origin) by UV/visible spectrophotometric method; assay type: nucleic-acid assay
[10] = Induction of cell cycle arrest in mouse MigA9 cells harboring mouse Hoxa9 gene assessed as accumulation at sub-G1 phase at 20 uM incubated for 48 hrs by propidium iodide staining based flow cytometry (reference value: 0.76 +/- 0.1%); assay type: functional
[11] = system: HOXA9 DNA binding site [UNDEFINED MUTATION]; test: Binding affinity to DNA Hoxa9-binding site-5'-ATTTA mutant (strand a-CTGCGATGAGTCACGACCGC/strand b-GCGGTCGTGACTCATCGCAG) (unknown origin) by UV/visible spectrophotometric method; assay type: nucleic-acid assay
[12] = Induction of cell cycle arrest in mouse MigA9 cells expressing mouse Hoxa9 assessed as accumulation at S phase at 1 uM incubated for 48 hrs by EdU/propidium iodide staining based flow cytometry (reference value: 46.68 +/- 0.21%); assay type: functional
[13] = Drug localization in nucleus of mouse MigA9 cells at 20 uM incubated for 2 hrs by TO-PRO-3/propidium iodide staining based by fluorescence microscopy; assay type: ADME, subcellular; details: miga9, 2 h
[14] = Induction of cell cycle arrest in mouse MigA9 cells expressing mouse Hoxa9 assessed as accumulation at S phase at 0.5 uM incubated for 48 hrs by EdU/propidium iodide staining based flow cytometry (reference value: 46.68 +/- 0.21%); assay type: functional
[15] = Induction of cell cycle arrest in mouse MigA9 cells expressing mouse Hoxa9 assessed as accumulation at G2/M phase at 1 uM incubated for 48 hrs by EdU/propidium iodide staining based flow cytometry (reference value: 4.55 +/- 0.16%); assay type: functional
[16] = Induction of cell death in mouse MigA9 cells harboring mouse Hoxa9 gene assessed as propidium iodide-positive cells at 1 uM incubated for 24 hrs by propidium iodide staining based flow cytometry relative to control; assay type: functional
[17] = Induction of cell cycle arrest in mouse MigA9 cells expressing mouse Hoxa9 assessed as accumulation at G0/G1 phase at 1 uM incubated for 48 hrs by EdU/propidium iodide staining based flow cytometry (reference value: 48.77 +/- 0.19%); assay type: functional
[18] = Induction of cell cycle arrest in mouse MigA9 cells expressing mouse Hoxa9 assessed as accumulation at G2/M phase at 0.5 uM incubated for 48 hrs by EdU/propidium iodide staining based flow cytometry (reference value: 4.55 +/- 0.16%); assay type: functional
[19] = Induction of cell death in mouse MigA9 cells harboring mouse Hoxa9 gene assessed as propidium iodide-positive cells at 1 uM incubated for 48 hrs by propidium iodide staining based flow cytometry (reference value: 8.75 +/- 0.2%); assay type: functional
[20] = Induction of cell cycle arrest in mouse MigA9 cells harboring mouse Hoxa9 gene assessed as accumulation at sub-G1 phase at 1 uM incubated for 48 hrs by propidium iodide staining based flow cytometry (reference value: 0.76 +/- 0.1%); assay type: functional
[21] = Induction of cell cycle arrest in mouse MigA9 cells harboring mouse Hoxa9 gene assessed as accumulation at sub-G1 phase at 0.5 uM incubated for 48 hrs by propidium iodide staining based flow cytometry (reference value: 0.76 +/- 0.1%); assay type: functional
[22] = Induction of cell death in mouse MigA9 cells harboring mouse Hoxa9 gene assessed as propidium iodide-positive cells at 0.5 uM incubated for 48 hrs by propidium iodide staining based flow cytometry (reference value: 8.75 +/- 0.2%); assay type: functional
[23] = Induction of cell cycle arrest in mouse MigA9 cells expressing mouse Hoxa9 assessed as accumulation at G0/G1 phase at 0.5 uM incubated for 48 hrs by EdU/propidium iodide staining based flow cytometry (reference value: 48.77 +/- 0.19%); assay type: functional
[24] = Induction of cell death in mouse MigA9 cells harboring mouse Hoxa9 gene assessed as propidium iodide-positive cells at 0.5 uM incubated for 24 hrs by propidium iodide staining based flow cytometry (reference value: 9.06 +/- 0.53%); assay type: functional

Which inhibition [1] does the source give for `N=C(N)c1ccc(-c2ccc(-c3nc4cc(C(=N)N)ccc4o3)o2)cc1` here?
The inhibition was “inactive”.

And the Activity [2]?
Its Activity is 8.38%.

And the Activity [3]?
The Activity was 8.89%.

What about the IC50 [4] of the same compound?
Its IC50 is over 50 µM.

What about the Drug transport [5] of the same compound?
The Drug transport was “Active”.

What about the Activity [6] of the same compound?
The Activity was “Not Active”.

And the Stabilty [7]?
The Stabilty was “Stable”.

And the Activity [8]?
Its Activity is 100%.

And the Activity [9]?
Its Activity is “inactive”.

And the Activity [10]?
The Activity was 0.92%.

And the Activity [11]?
Its Activity is “inactive”.

For `N=C(Nc1ccc(-c2ccc(-c3ccc(NC(=N)c4ccccn4)cc3)[nH]2)cc1)c1ccccn1`, which Activity [12] is on record?
Its Activity is 43.51%.

What about the Drug transport [13] of the same compound?
Its Drug transport is “Active”.

And the Activity [14]?
The Activity was 46.06%.

And the Activity [15]?
Its Activity is 6.34%.

What about the Activity [16] of the same compound?
Its Activity is 14.43%.

And the Activity [17]?
Its Activity is 50.15%.

And the Activity [18]?
Its Activity is 5.5%.

What about the Activity [19] of the same compound?
The Activity was 17.6%.

What about the Activity [20] of the same compound?
The Activity was 1.04%.

And the Activity [21]?
The Activity was 1.23%.

What about the Activity [22] of the same compound?
The Activity was 8.01%.

What about the Activity [23] of the same compound?
Its Activity is 48.44%.

What about the Activity [24] of the same compound?
Its Activity is 5.19%.
